{"source": "patent US20230049952A1", "about": "“METHODS AND COMPOUNDS FOR RESTORING MUTANT P53 FUNCTION” (PMV Pharmaceuticals, Inc., priority 2020, published 2023)", "system": "p53 signaling pathway in MT373 tumors", "assay": "MT373 syngeneic sarcoma model: mouse p53 signaling pathway profiling panel", "type": "in vivo"}
{"smiles": "CCn1c(C#CCNc2ccccc2)cc2cc(CNC3CCN(C)CC3)ccc21", "note": "[Compound 1, 1-Anilino-3-{1-ethyl-5-[(1-methyl-4-piperidylamino)methyl]-1H-indol-2-yl}-2-propyne]", "values": [{"measurement": "Hif1a fold increase or percent reduction vs vehicle control", "setting": "75 mg/kg BIDx1, 72 h", "result": "1.19 fold or %"}, {"measurement": "Il6 fold increase or percent reduction vs vehicle control", "setting": "75 mg/kg BIDx1, 72 h", "result": "65.67 fold or %"}, {"measurement": "Jun fold increase or percent reduction vs vehicle control", "setting": "75 mg/kg BIDx1, 72 h", "result": "25.77 fold or %"}, {"measurement": "Kras fold increase or percent reduction vs vehicle control", "setting": "75 mg/kg BIDx1, 72 h", "result": "1.09 fold or %"}, {"measurement": "Lig4 fold increase or percent reduction vs vehicle control", "setting": "75 mg/kg BIDx1, 72 h", "result": "1.12 fold or %"}, {"measurement": "Mdm2 fold increase or percent reduction vs vehicle control", "setting": "75 mg/kg BIDx1, 72 h", "result": "2.80 fold or %"}, {"measurement": "Mdm4 fold increase or percent reduction vs vehicle control", "setting": "75 mg/kg BIDx1, 72 h", "result": "14.78 fold or %"}, {"measurement": "Mel1 fold increase or percent reduction vs vehicle control", "setting": "75 mg/kg BIDx1, 72 h", "result": "21.11 fold or %"}, {"measurement": "Mlh1 fold increase or percent reduction vs vehicle control", "setting": "75 mg/kg BIDx1, 72 h", "result": "4.80 fold or %"}, {"measurement": "Msh2 fold increase or percent reduction vs vehicle control", "setting": "75 mg/kg BIDx1, 72 h", "result": "16.07 fold or %"}, {"measurement": "Myod1 fold increase or percent reduction vs vehicle control", "setting": "75 mg/kg BIDx1, 72 h", "result": "2.73 fold or %"}, {"measurement": "Nf1 fold increase or percent reduction vs vehicle control", "setting": "75 mg/kg BIDx1, 72 h", "result": "21.43 fold or %"}, {"measurement": "Nfkb1 fold increase or percent reduction vs vehicle control", "setting": "75 mg/kg BIDx1, 72 h", "result": "1.73 fold or %"}, {"measurement": "Pcna fold increase or percent reduction vs vehicle control", "setting": "75 mg/kg BIDx1, 72 h", "result": "23.22 fold or %"}, {"measurement": "Pmaip1 fold increase or percent reduction vs vehicle control", "setting": "75 mg/kg BIDx1, 72 h", "result": "1.03 fold or %"}, {"measurement": "Ppm1d fold increase or percent reduction vs vehicle control", "setting": "75 mg/kg BIDx1, 72 h", "result": "5.34 fold or %"}, {"measurement": "Prc1 fold increase or percent reduction vs vehicle control", "setting": "75 mg/kg BIDx1, 72 h", "result": "6.02 fold or %"}, {"measurement": "Prkca fold increase or percent reduction vs vehicle control", "setting": "75 mg/kg BIDx1, 72 h", "result": "6.98 fold or %"}, {"measurement": "Pten fold increase or percent reduction vs vehicle control", "setting": "75 mg/kg BIDx1, 72 h", "result": "3.49 fold or %"}, {"measurement": "Pttg1 fold increase or percent reduction vs vehicle control", "setting": "75 mg/kg BIDx1, 72 h", "result": "1.03 fold or %"}, {"measurement": "Rb1 fold increase or percent reduction vs vehicle control", "setting": "75 mg/kg BIDx1, 72 h", "result": "3.16 fold or %"}, {"measurement": "Rela fold increase or percent reduction vs vehicle control", "setting": "75 mg/kg BIDx1, 72 h", "result": "4.69 fold or %"}, {"measurement": "Rprm fold increase or percent reduction vs vehicle control", "setting": "75 mg/kg BIDx1, 72 h", "result": "1.34 fold or %"}, {"measurement": "Serpinb5 fold increase or percent reduction vs vehicle control", "setting": "75 mg/kg BIDx1, 72 h", "result": "15.52 fold or %"}, {"measurement": "Sesn2 fold increase or percent reduction vs vehicle control", "setting": "75 mg/kg BIDx1, 72 h", "result": "1.11 fold or %"}, {"measurement": "Sfn fold increase or percent reduction vs vehicle control", "setting": "75 mg/kg BIDx1, 72 h", "result": "8.30 fold or %"}, {"measurement": "Sirt1 fold increase or percent reduction vs vehicle control", "setting": "75 mg/kg BIDx1, 72 h", "result": "5.18 fold or %"}, {"measurement": "Stat1 fold increase or percent reduction vs vehicle control", "setting": "75 mg/kg BIDx1, 72 h", "result": "1.58 fold or %"}, {"measurement": "Tnf fold increase or percent reduction vs vehicle control", "setting": "75 mg/kg BIDx1, 72 h", "result": "1.28 fold or %"}, {"measurement": "Traf1 fold increase or percent reduction vs vehicle control", "setting": "75 mg/kg BIDx1, 72 h", "result": "1.16 fold or %"}, {"measurement": "Trp53bp2 fold increase or percent reduction vs vehicle control", "setting": "75 mg/kg BIDx1, 72 h", "result": "7.94 fold or %"}, {"measurement": "Trp53 fold increase or percent reduction vs vehicle control", "setting": "75 mg/kg BIDx1, 72 h", "result": "1.11 fold or %"}, {"measurement": "Bbc3 mRNA increase", "setting": "75 mg/kg BID×1, 24 h", "result": 1.80, "unit": "fold"}, {"measurement": "Birc5 mRNA decrease", "setting": "75 mg/kg BID×1, 24 h", "result": 45.92, "unit": "%"}, {"measurement": "Ccng1 mRNA increase", "setting": "75 mg/kg BID×1, 24 h", "result": 4.63, "unit": "fold"}, {"measurement": "Cdc25c mRNA decrease", "setting": "75 mg/kg BID×1, 24 h", "result": 60.54, "unit": "%"}, {"measurement": "Cdk1 mRNA decrease", "setting": "75 mg/kg BID×1, 24 h", "result": 59.92, "unit": "%"}, {"measurement": "Cdkn1a mRNA increase", "setting": "75 mg/kg BID×1, 24 h", "result": 5.16, "unit": "fold"}, {"measurement": "Chek1 mRNA decrease", "setting": "75 mg/kg BID×1, 24 h", "result": 52.36, "unit": "%"}, {"measurement": "Egfr mRNA change", "setting": "75 mg/kg BID×1, 24 h", "result": 28.18, "unit": "%"}, {"measurement": "Il6 mRNA change", "setting": "75 mg/kg BID×1, 24 h", "result": 70.78, "unit": "%"}, {"measurement": "Mdm2 mRNA increase", "setting": "75 mg/kg BID×1, 24 h", "result": 2.76, "unit": "fold"}, {"measurement": "Sesn2 mRNA increase", "setting": "75 mg/kg BID×1, 24 h", "result": 2.05, "unit": "fold"}, {"measurement": "Zmat3 mRNA increase", "setting": "75 mg/kg BID×1, 24 h", "result": 4.14, "unit": "fold"}, {"measurement": "Apex1 fold increase or percent reduction vs vehicle control", "setting": "150 mg/kg BIDx1, 8 h", "result": "27.35 fold or %"}, {"measurement": "Atm fold increase or percent reduction vs vehicle control", "setting": "150 mg/kg BIDx1, 8 h", "result": "22.22 fold or %"}, {"measurement": "Atr fold increase or percent reduction vs vehicle control", "setting": "150 mg/kg BIDx1, 8 h", "result": "27.07 fold or %"}, {"measurement": "Bag1 fold increase or percent reduction vs vehicle control", "setting": "150 mg/kg BIDx1, 8 h", "result": "23.32 fold or %"}, {"measurement": "Bax fold increase or percent reduction vs vehicle control", "setting": "150 mg/kg BIDx1, 8 h", "result": "1.68 fold or %"}, {"measurement": "Bbc3 fold increase or percent reduction vs vehicle control", "setting": "150 mg/kg BIDx1, 8 h", "result": "1.97 fold or %"}, {"measurement": "Bcl2 fold increase or percent reduction vs vehicle control", "setting": "150 mg/kg BIDx1, 8 h", "result": "28.71 fold or %"}, {"measurement": "Bid fold increase or percent reduction vs vehicle control", "setting": "150 mg/kg BIDx1, 8 h", "result": "12.20 fold or %"}, {"measurement": "Birc5 fold increase or percent reduction vs vehicle control", "setting": "150 mg/kg BIDx1, 8 h", "result": "26.07 fold or %"}, {"measurement": "Brca1 fold increase or percent reduction vs vehicle control", "setting": "150 mg/kg BIDx1, 8 h", "result": "34.27 fold or %"}, {"measurement": "Brca2 fold increase or percent reduction vs vehicle control", "setting": "150 mg/kg BIDx1, 8 h", "result": "36.90 fold or %"}, {"measurement": "Btg2 fold increase or percent reduction vs vehicle control", "setting": "150 mg/kg BIDx1, 8 h", "result": "13.04 fold or %"}, {"measurement": "Casp2 fold increase or percent reduction vs vehicle control", "setting": "150 mg/kg BIDx1, 8 h", "result": "34.08 fold or %"}, {"measurement": "Ccnb1 fold increase or percent reduction vs vehicle control", "setting": "150 mg/kg BIDx1, 8 h", "result": "15.72 fold or %"}, {"measurement": "Ccne1 fold increase or percent reduction vs vehicle control", "setting": "150 mg/kg BIDx1, 8 h", "result": "40.62 fold or %"}, {"measurement": "Ccng1 fold increase or percent reduction vs vehicle control", "setting": "150 mg/kg BIDx1, 8 h", "result": "6.49 fold or %"}, {"measurement": "Ccnh fold increase or percent reduction vs vehicle control", "setting": "150 mg/kg BIDx1, 8 h", "result": "29.12 fold or %"}, {"measurement": "Cdc25a fold increase or percent reduction vs vehicle control", "setting": "150 mg/kg BIDx1, 8 h", "result": "34.26 fold or %"}, {"measurement": "Cdk1 fold increase or percent reduction vs vehicle control", "setting": "150 mg/kg BIDx1, 8 h", "result": "39.81 fold or %"}, {"measurement": "Cdk4 fold increase or percent reduction vs vehicle control", "setting": "150 mg/kg BIDx1, 8 h", "result": "47.61 fold or %"}, {"measurement": "Cdkn1a fold increase or percent reduction vs vehicle control", "setting": "150 mg/kg BIDx1, 8 h", "result": "8.66 fold or %"}, {"measurement": "Cdkn2a fold increase or percent reduction vs vehicle control", "setting": "150 mg/kg BIDx1, 8 h", "result": "42.49 fold or %"}, {"measurement": "Chek1 fold increase or percent reduction vs vehicle control", "setting": "150 mg/kg BIDx1, 8 h", "result": "41.91 fold or %"}, {"measurement": "Cradd fold increase or percent reduction vs vehicle control", "setting": "150 mg/kg BIDx1, 8 h", "result": "36.95 fold or %"}, {"measurement": "Cul9 fold increase or percent reduction vs vehicle control", "setting": "150 mg/kg BIDx1, 8 h", "result": "26.00 fold or %"}, {"measurement": "Dapk1 fold increase or percent reduction vs vehicle control", "setting": "150 mg/kg BIDx1, 8 h", "result": "2.02 fold or %"}, {"measurement": "Dnmt1 fold increase or percent reduction vs vehicle control", "setting": "150 mg/kg BIDx1, 8 h", "result": "17.37 fold or %"}, {"measurement": "E2f1 fold increase or percent reduction vs vehicle control", "setting": "150 mg/kg BIDx1, 8 h", "result": "27.89 fold or %"}, {"measurement": "E2f3 fold increase or percent reduction vs vehicle control", "setting": "150 mg/kg BIDx1, 8 h", "result": "27.45 fold or %"}, {"measurement": "Egfr fold increase or percent reduction vs vehicle control", "setting": "150 mg/kg BIDx1, 8 h", "result": "39.84 fold or %"}, {"measurement": "Egr1 fold increase or percent reduction vs vehicle control", "setting": "150 mg/kg BIDx1, 8 h", "result": "53.86 fold or %"}, {"measurement": "Ep300 fold increase or percent reduction vs vehicle control", "setting": "150 mg/kg BIDx1, 8 h", "result": "11.02 fold or %"}, {"measurement": "Ercc1 fold increase or percent reduction vs vehicle control", "setting": "150 mg/kg BIDx1, 8 h", "result": "16.08 fold or %"}, {"measurement": "Esr1 fold increase or percent reduction vs vehicle control", "setting": "150 mg/kg BIDx1, 8 h", "result": "14.42 fold or %"}, {"measurement": "Fadd fold increase or percent reduction vs vehicle control", "setting": "150 mg/kg BIDx1, 8 h", "result": "31.64 fold or %"}, {"measurement": "Fas fold increase or percent reduction vs vehicle control", "setting": "150 mg/kg BIDx1, 8 h", "result": "2.12 fold or %"}, {"measurement": "Fasl fold increase or percent reduction vs vehicle control", "setting": "150 mg/kg BIDx1, 8 h", "result": "3.98 fold or %"}, {"measurement": "Foxo3 fold increase or percent reduction vs vehicle control", "setting": "150 mg/kg BIDx1, 8 h", "result": "1.15 fold or %"}, {"measurement": "Gadd45a fold increase or percent reduction vs vehicle control", "setting": "150 mg/kg BIDx1, 8 h", "result": "23.94 fold or %"}, {"measurement": "Hif1a fold increase or percent reduction vs vehicle control", "setting": "150 mg/kg BIDx1, 8 h", "result": "1.07 fold or %"}]}
